According to PubChem BioAssay AID248 (DTP/NCI, 2004):
Where “and” joins values, the source holds several entries; their conditions need not be identical. Identical values can stand only once. Toxic doses and inconclusive results are not listed. Rule as the data show it: active = T/C of 150% or more; inactive = T/C below 125%.

System: L1210 leukemia ip in BDF1 mice, survival T/C
Experiment: NCI In Vivo Anticancer Drug Screen. Data for tumor model L1210 Leukemia (intraperitoneal) in B6D2F1 (BDF1) mice
Details: endpoint: mean survival time, higher = longer survival
In short: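 Each compound was tested against a transplantable tumor grown in mice. The endpoint was survival, with treated animals benchmarked against vehicle controls as a simple ratio.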

[1] = dose: 100.0 mg/kg/injection, schedule: Q01DX009 (ip), vehicle: Klucel (hydroxypropylcellulose) (HPC)
[2] = dose: 200.0 mg/kg/injection, schedule: Q01DX009 (ip), vehicle: Klucel (hydroxypropylcellulose) (HPC)
[3] = dose: 100.0 mg/kg/injection, schedule: Q04DX003 (ip), vehicle: saline
[4] = dose: 200.0 mg/kg/injection, schedule: Q04DX003 (ip), vehicle: saline
[5] = dose: 400.0 mg/kg/injection, schedule: Q04DX003 (ip), vehicle: saline
[6] = dose: 100.0 mg/kg/injection, schedule: Q04DX002 (ip), vehicle: Klucel (hydroxypropylcellulose) (HPC)
[7] = dose: 200.0 mg/kg/injection, schedule: Q04DX002 (ip), vehicle: Klucel (hydroxypropylcellulose) (HPC)
[8] = dose: 100.0 mg/kg/injection, schedule: Q04DX003 (ip), vehicle: Klucel (hydroxypropylcellulose) (HPC)
[9] = dose: 100.0 mg/kg/injection, schedule: Q01DX009 (ip), vehicle: saline
[10] = dose: 200.0 mg/kg/injection, schedule: Q01DX009 (ip), vehicle: saline
[11] = dose: 400.0 mg/kg/injection, schedule: Q01DX009 (ip), vehicle: saline
[12] = dose: 400.0 mg/kg/injection, schedule: Q04DX002 (ip), vehicle: Klucel (hydroxypropylcellulose) (HPC)

Measured: T/C

CCc1c([N+](=O)[O-])oc2ccc(Cl)cc12
inactive: [1] 103 % of control | [2] 105 % of control | dose: 400.0 mg/kg/injection, schedule: Q01DX009 (ip), vehicle: Klucel (hydroxypropylcellulose) (HPC) 107 % of control

CCC(O)CN (centres undefined)
inactive: [3] 96 % of control and 107 % of control | [4] 96 % of control | [5] 95 % of control

[O-][n+]1ccc2ccccc2c1
inactive: dose: 50.0 mg/kg/injection, schedule: Q01DX005 (ip), vehicle: Klucel (hydroxypropylcellulose) (HPC) 102 % of control | dose: 50.0 mg/kg/injection, schedule: Q01DX009 (ip), vehicle: Klucel (hydroxypropylcellulose) (HPC) 101 % of control | dose: 100.0 mg/kg/injection, schedule: Q01DX001 (ip), vehicle: other 110 % of control | dose: 100.0 mg/kg/injection, schedule: Q01DX005 (ip), vehicle: Klucel (hydroxypropylcellulose) (HPC) 97 % of control | [1] 108 % of control | [6] 106 % of control | [3] 111 % of control | dose: 200.0 mg/kg/injection, schedule: Q01DX001 (ip), vehicle: other 100 % of control | dose: 200.0 mg/kg/injection, schedule: Q01DX005 (ip), vehicle: Klucel (hydroxypropylcellulose) (HPC) 105 % of control | [2] 111 % of control | [7] 109 % of control | [4] 114 % of control | dose: 400.0 mg/kg/injection, schedule: Q01DX001 (ip), vehicle: other 103 % of control

CN(C)C(=O)c1cc(C(=O)N(C)C)c[n+](Cc2c(Cl)cccc2Cl)c1
inactive: dose: 18.75 mg/kg/injection, schedule: Q01DX009 (ip), vehicle: saline 95 % of control | dose: 37.5 mg/kg/injection, schedule: Q01DX009 (ip), vehicle: saline 95 % of control | dose: 75.0 mg/kg/injection, schedule: Q01DX001 (ip), vehicle: saline 97 % of control | dose: 75.0 mg/kg/injection, schedule: Q01DX009 (ip), vehicle: saline 94 % of control | dose: 75.0 mg/kg/injection, schedule: Q04DX003 (ip), vehicle: saline 100 % of control | dose: 150.0 mg/kg/injection, schedule: Q01DX001 (ip), vehicle: saline 106 % of control | dose: 150.0 mg/kg/injection, schedule: Q04DX003 (ip), vehicle: saline 96 % of control | dose: 300.0 mg/kg/injection, schedule: Q01DX001 (ip), vehicle: saline 104 % of control

CCP(CC)c1ccccc1
inactive: dose: 100.0 mg/kg/injection, schedule: Q01DX009 (sc), vehicle: olive oil, sesame oil, peanut oil 100 % of control | dose: 100.0 mg/kg/injection, schedule: Q04DX003 (sc), vehicle: olive oil, sesame oil, peanut oil 98 % of control | dose: 200.0 mg/kg/injection, schedule: Q01DX009 (sc), vehicle: olive oil, sesame oil, peanut oil 102 % of control | dose: 200.0 mg/kg/injection, schedule: Q04DX003 (sc), vehicle: olive oil, sesame oil, peanut oil 96 % of control | dose: 400.0 mg/kg/injection, schedule: Q01DX009 (sc), vehicle: olive oil, sesame oil, peanut oil 107 % of control | dose: 400.0 mg/kg/injection, schedule: Q04DX003 (sc), vehicle: olive oil, sesame oil, peanut oil 98 % of control

O=C(Cc1cccc2ccccc12)OCCBr
inactive: dose: 222.0 mg/kg/injection, schedule: Q01DX Z (ip), vehicle: methylcellulose (MC) 100 % of control | dose: 333.0 mg/kg/injection, schedule: Q01DX Z (ip), vehicle: methylcellulose (MC) 100 % of control | dose: 500.0 mg/kg/injection, schedule: Q01DX Z (ip), vehicle: methylcellulose (MC) 96 % of control

CC(=O)Nc1ccc(S(=O)(=O)Nc2cc(C)ns2)cc1
inactive: [3] 92 % of control | [4] 96 % of control | [5] 100 % of control

CC1(C)NC(=O)N(CCO)C1=O
inactive: dose: 50.0 mg/kg/injection, schedule: Q04DX003 (ip), vehicle: saline 111 % of control | [3] 111 % of control | [4] 100 % of control | [5] 101 % of control

CCCCCCCCCCCCCCOc1ccc(C(=O)CC(=O)OC)cc1
inactive: [8] 90 % of control | dose: 200.0 mg/kg/injection, schedule: Q04DX003 (ip), vehicle: Klucel (hydroxypropylcellulose) (HPC) 98 % of control | dose: 400.0 mg/kg/injection, schedule: Q04DX003 (ip), vehicle: Klucel (hydroxypropylcellulose) (HPC) 90 % of control

OC1OCC(Cc2ccc3c(c2)OCO3)C1Cc1ccc2c(c1)OCO2 (centres undefined)
inactive: [9] 91 % of control | [10] 99 % of control | [11] 88 % of control

O=C1C(Br)=CC(=NBr)C=C1Br
inactive: dose: 25.0 mg/kg/injection, schedule: Q04DX003 (ip), vehicle: Klucel (hydroxypropylcellulose) (HPC) 101 % of control | dose: 50.0 mg/kg/injection, schedule: Q04DX003 (ip), vehicle: Klucel (hydroxypropylcellulose) (HPC) 101 % of control | [8] 97 % of control

CCOC(=O)CCN1CCOCC1
inactive: [9] 100 % of control | [3] 111 % of control | [10] 101 % of control | [4] 101 % of control | [11] 111 % of control | [5] 101 % of control

CCCCCCCCCCCCCC(O)CC(=O)O (centres undefined)
inactive: [6] 91 % of control | [7] 91 % of control | [12] 104 % of control

C[C@@H]1CC2=CC(=O)C=C[C@]2(C)[C@H]2CC[C@@]3(C)[C@@H](CC[C@]3(C)O)[C@H]12
inactive: dose: 100.0 mg/kg/injection, schedule: Q01DX001 (sc), vehicle: steriod suspending solution 104 % of control | dose: 200.0 mg/kg/injection, schedule: Q01DX001 (sc), vehicle: steriod suspending solution 106 % of control | dose: 400.0 mg/kg/injection, schedule: Q01DX001 (sc), vehicle: steriod suspending solution 97 % of control

C1=NC(c2ccccc2)=CN(C2CCCCCC2)C1(c1ccccc1)C1CCCCCC1 (centres undefined)
inactive: dose: 50.0 mg/kg/injection, schedule: Q04DX002 (ip), vehicle: saline 99 % of control | [6] 98 % of control | dose: 100.0 mg/kg/injection, schedule: Q04DX002 (ip), vehicle: saline 101 % of control | [7] 88 % of control | dose: 200.0 mg/kg/injection, schedule: Q04DX002 (ip), vehicle: saline 96 % of control | [12] 95 % of control

Cc1ccc(Cl)c2ccccc12
inactive: dose: 12.5 mg/kg/injection, schedule: Q01DX009 (ip), vehicle: saline with Tween-80 106 % of control | dose: 25.0 mg/kg/injection, schedule: Q01DX009 (ip), vehicle: saline with Tween-80 104 % of control | dose: 50.0 mg/kg/injection, schedule: Q01DX009 (ip), vehicle: saline with Tween-80 106 % of control | dose: 100.0 mg/kg/injection, schedule: Q01DX009 (ip), vehicle: saline with Tween-80 93 % of control | dose: 200.0 mg/kg/injection, schedule: Q01DX009 (ip), vehicle: saline with Tween-80 90 % of control | dose: 400.0 mg/kg/injection, schedule: Q01DX009 (ip), vehicle: saline with Tween-80 101 % of control

O=S(=O)(OCC1CO1)c1ccc(N=Nc2ccccc2)cc1 (centres undefined)
inactive: dose: 100.0 mg/kg/injection, schedule: Q01DX008 (ip), vehicle: Klucel (hydroxypropylcellulose) (HPC) 98 % of control | dose: 200.0 mg/kg/injection, schedule: Q01DX008 (ip), vehicle: Klucel (hydroxypropylcellulose) (HPC) 90 % of control | dose: 400.0 mg/kg/injection, schedule: Q01DX008 (ip), vehicle: Klucel (hydroxypropylcellulose) (HPC) 96 % of control
